Measured values reported in the supplement of paper PMC11451515.

System: SEM cells
Test: cell viability relative to DMSO control; higher = less cytotoxic
Conditions: 48 h
In short: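 Three leukemia lines were tested: NOMO1 and SEM at 500 cells/well and P12-Ichikawa at 1000 cells/well. Each was adapted for at least four passages in each medium and seeded in 5 μl in 1536-well plates, and library compounds in DMSO were pin-dosed from 47 μM to 0.79 nM in 11 threefold steps. After 48 h at 37°C, CellTiter-Glo One luminescence was read. Viability is a percentage relative to DMSO wells on each plate, with cell-free wells as background.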

[1] = HPLM + 10% dialyzed FBS, 0.000781 µM
[2] = HPLM + 10% dialyzed FBS, 0.00234 µM
[3] = HPLM + 10% dialyzed FBS, 0.00702 µM
[4] = HPLM + 10% dialyzed FBS, 0.0211 µM
[5] = HPLM + 10% dialyzed FBS, 0.0632 µM
[6] = HPLM + 10% dialyzed FBS, 0.19 µM
[7] = HPLM + 10% dialyzed FBS, 0.569 µM
[8] = HPLM + 10% dialyzed FBS, 1.71 µM
[9] = HPLM + 10% dialyzed FBS, 5.12 µM
[10] = HPLM + 10% dialyzed FBS, 15.4 µM
[11] = HPLM + 10% dialyzed FBS, 46.1 µM
[12] = RPMI 5 mM glucose + 10% FBS, 0.000781 µM
[13] = RPMI 5 mM glucose + 10% FBS, 0.00234 µM
[14] = RPMI 5 mM glucose + 10% FBS, 0.00702 µM
[15] = RPMI 5 mM glucose + 10% FBS, 0.0211 µM
[16] = RPMI 5 mM glucose + 10% FBS, 0.0632 µM
[17] = RPMI 5 mM glucose + 10% FBS, 0.19 µM
[18] = RPMI 5 mM glucose + 10% FBS, 0.569 µM
[19] = RPMI 5 mM glucose + 10% FBS, 1.71 µM
[20] = RPMI 5 mM glucose + 10% FBS, 5.12 µM
[21] = RPMI 5 mM glucose + 10% FBS, 15.4 µM
[22] = RPMI 5 mM glucose + 10% FBS, 46.1 µM
[23] = RPMI 5 mM glucose + 10% dialyzed FBS, 0.000781 µM
[24] = RPMI 5 mM glucose + 10% dialyzed FBS, 0.00234 µM
[25] = RPMI 5 mM glucose + 10% dialyzed FBS, 0.00702 µM
[26] = RPMI 5 mM glucose + 10% dialyzed FBS, 0.0211 µM
[27] = RPMI 5 mM glucose + 10% dialyzed FBS, 0.0632 µM
[28] = RPMI 5 mM glucose + 10% dialyzed FBS, 0.19 µM
[29] = RPMI 5 mM glucose + 10% dialyzed FBS, 0.569 µM
[30] = RPMI 5 mM glucose + 10% dialyzed FBS, 1.71 µM
[31] = RPMI 5 mM glucose + 10% dialyzed FBS, 5.12 µM
[32] = RPMI 5 mM glucose + 10% dialyzed FBS, 15.4 µM
[33] = RPMI 5 mM glucose + 10% dialyzed FBS, 46.1 µM

Row | Structure (SMILES) | cell viability [1] [%] | cell viability [2] [%] | cell viability [3] [%] | cell viability [4] [%] | cell viability [5] [%] | cell viability [6] [%] | cell viability [7] [%] | cell viability [8] [%] | cell viability [9] [%] | cell viability [10] [%] | cell viability [11] [%] | cell viability [12] [%] | cell viability [13] [%] | cell viability [14] [%] | cell viability [15] [%] | cell viability [16] [%] | cell viability [17] [%] | cell viability [18] [%] | cell viability [19] [%] | cell viability [20] [%] | cell viability [21] [%] | cell viability [22] [%] | cell viability [23] [%] | cell viability [24] [%] | cell viability [25] [%] | cell viability [26] [%] | cell viability [27] [%] | cell viability [28] [%] | cell viability [29] [%] | cell viability [30] [%] | cell viability [31] [%] | cell viability [32] [%] | cell viability [33] [%]
1 | COC1=CC=C2C(=CC=NC2=C1)OC3=CC=C(NC(=O)\C4=C(C)\N(CC(C)(C)O)N(C4=O)C5=CC=CC=C5)C=C3F | 108 | 99.9 | 129 | 108 | 114 | 112 | 112 | 98.1 | 60.7 | 45.7 | 39.1 | 113 | 108 | 122 | 115 | 117 | 118 | 104 | 86.1 | 51.1 | 30.7 | 21.6 | 105 | 110 | 124 | 108 | 136 | 130 | 93.8 | 69.7 | 44.4 | 35.8 | 24.2
2 | CC1(C)O[C@H]2CC(=O)OC[C@]23[C@H]2CC[C@@]4(C)[C@H](c5ccoc5)OC(=O)[C@H]5O[C@]54[C@]2(C)C(=O)C[C@@H]13 | 84.1 | 86.8 | 95.3 | 96.2 | 108 | 106 | 104 | 105 | 96.7 | 89.4 | 98.7 | 83.8 | 98.8 | 98.4 | 88.8 | 99.2 | 86 | 105 | 88.2 | 96.5 | 85.2 | 93.2 | 74.6 | 102 | 97.5 | 83.1 | 99 | 90 | 109 | 76.6 | 84.8 | 102 | 90
3 | CCCCCCCCCCCCCCCC(=O)OC[C@@H](NC(=O)C(Cl)Cl)[C@H](O)c1ccc([N+](=O)[O-])cc1 | 90.3 | 113 | 114 | 116 | 121 | 121 | 118 | 123 | 131 | 116 | 119 | 120 | 117 | 132 | 122 | 136 | 138 | 132 | 124 | 128 | 133 | 129 | – | – | – | – | – | – | – | – | – | – | –
4 | O=C(C1CCCCC1)N1CC(=O)N2CCc3ccccc3C2C1 (stereo not drawn) | 90.6 | 98.8 | 117 | 108 | 113 | 96 | 97.1 | 86.1 | 78.2 | 84.1 | 75.8 | 99.9 | 109 | 126 | 105 | 116 | 95.8 | 91.6 | 74.3 | 66.7 | 75.1 | 78.4 | 106 | 110 | 147 | 99.1 | 133 | 132 | 103 | 77.9 | 75 | 74.8 | 73.1
5 | Cn1cc(-c2ccncc2)c(-c2ccc(OCc3ccc4ccccc4n3)cc2)n1 | 124 | 127 | 95 | 134 | 132 | 123 | 116 | 124 | 125 | 110 | 110 | 123 | 126 | 102 | 118 | 118 | 125 | 122 | 124 | 95.3 | 81.1 | 82.4 | 94.6 | 108 | 89.7 | 112 | 98 | 102 | 112 | 110 | 103 | 96.8 | 64.3
6 | CC(C)c1ccc2oc3nc(N)c(C(=O)O)cc3c(=O)c2c1 | 106 | 109 | 96.6 | 109 | 126 | 108 | 128 | 115 | 106 | 118 | 102 | 116 | 131 | 122 | 122 | 145 | 134 | 150 | 121 | 134 | 140 | 137 | 98 | 118 | 134 | 141 | 141 | 131 | 143 | 127 | 146 | 146 | 129
7 | C=C1C[C@@]2(O)O[C@@]3(C[C@H]2C(C)C)[C@@H](C)CC[C@@H]13 | 90.3 | 85.5 | 68.4 | 109 | 105 | 108 | 23.6 | 41 | 100 | 108 | 95.1 | 117 | 109 | 78.5 | 125 | 113 | 122 | 21.8 | 41.5 | 116 | 108 | 111 | 81.8 | 110 | 77.2 | 97.3 | 96 | 104 | 21.5 | 29.9 | 105 | 111 | 93.2
8 | COc1ccc(-c2c(-c3ccc(O)cc3O)n[nH]c2C)cc1 | 98.3 | 95.8 | 114 | 108 | 110 | 108 | 88.8 | 95.5 | 86 | 62.2 | 51.1 | 114 | 104 | 107 | 109 | 108 | 108 | 103 | 84.3 | 84.1 | 44 | 20.9 | 98.6 | 96.8 | 93 | 101 | 103 | 108 | 96.2 | 99.5 | 87 | 54.4 | 30.9
